Measurements published in paper PMC5867665, “Targeting Multiple Effector Pathways in Pancreatic Ductal Adenocarcinoma with a G-Quadruplex-Binding Small Molecule” (Journal of Medicinal Chemistry, 2018).

Key:
[1] = Maximum tolerated dose (MTD) study; assay type: in vivo; details: dose-escalation MTD study, IV, CD-1 nude mice
Experimental: To determine if the in vitro activity of CM03 was paralleled in vivo, we explored the activity of CM03 in a mouse xenograft model of PDAC. We have previously reported that the maximum tolerated dosage (MTD) for intravenous (IV) administration of MM41 is 25 mg/kg.[33] CM03 was well tolerated, up to a dosage of 45–50 mg/kg, as judged by a dose-escalation MTD study. A therapeutic schedule of two CM03 intravenous (IV) doses was explored using a subcutaneous MIA PaCa-2 pancreatic tumor xenograft model derived from the human cell line used in the cell growth inhibition studies. A group size of eight CD-1 nude mice was used, and dosing was conducted at 10 and 15 mg/kg, each twice weekly, over a period of 4 weeks (28 days: 8 doses). Two further groups were given either MM41 or gemcitabine at 15 mg/kg and received the same dose regimen. […] IVIS imaging of treated mice was performed by taking account of the intrinsic fluorescence of CM03. […] Thus, in contrast to MM41 and gemcitabine, the higher-dose CM03 treatment results in a statistically significant (p < 0.001) antitumor effect, which persisted long after dosing had ceased, up to the termination of the xenograft experiment (62 days).
The maximum tolerated dose (MTD) studies of MM41 and CM03 were performed in CD-1 nude mice. […] Mice were monitored visually for signs of adverse effects over periods of up to 72 h. […]

[2] = test system: PANC-1 and MIA PaCa-2 cells; assay: RNA-seq gene expression, genes common to PANC-1 and MIA PaCa-2; assay type: cell-based, human
From the text: CM03 is a potent G4 ligand, as shown by the FRET and quantitative binding experiments reported here. We therefore reasoned that the potent CM03 antiproliferative activity on PDAC cells could be mediated through a G4-targeting mechanism. To test this hypothesis, we determined whether transcriptome changes upon early CM03 treatment were correlated with G4 presence in promoters and/or gene bodies. […] The time and dose of CM03 treatment were selected to reveal initial but robust mRNA changes while minimizing chronic effects due to cell toxicity. In both cell lines, the number of genes with altered expression (as defined by >0.5 increase in Log 2 of fold change [Log2 FC], or < −0.5 decrease; false discovery rate [FDR] < 0.1) increased with duration of CM03 treatment. In PANC-1 cells 2165 genes at 6 h and 3977 genes at 24 h were seen to change, while in MIA PaCa-2 cells, 5306 genes changed at 6 h and 5477 genes at 24 h compared to untreated controls (Supporting Information, Table 1). […] To validate that the targeting of G4-containing genes is not a general feature of antiproliferative agents, we also examined the effects of the first-line therapeutic agent for PDAC, gemcitabine,[37] a potent antiproliferative DNA synthesis inhibitor whose mechanism of action is G4-independent and which remains a standard therapy option in advanced PDAC. Both cell lines were treated with a range of gemcitabine concentrations (Supporting Information, Figure 4, Table 4) for 6 or 24 h.
The PDAC cell lines PANC-1 (ATCC, catalogue no. CRL-1469) and MIA PaCa-2 (ATCC, catalogue no. CRL-142) were maintained in DMEM (ThermoFisher, catalogue no. 11965092) supplemented with 10% (v/v) heat inactivated FBS (ThermoFisher) in a humidified atmosphere containing 5% CO2 at 37 °C. Cell lines were confirmed mycoplasma free by RNA-capture ELISA, and their genotypes were certified by STR profiling.
PANC-1 (0.35 × 10^6 cells/well) and MIA PaCa-2 (1.5 × 10^6 cells/well) cell lines were seeded overnight in 60 mm plates. Next day, cells were treated with 400 nM CM03 for 6 and 24 h. For gemcitabine treatment, cells were treated for 6 and 24 h with DMSO or 30 nM, 100 nM, 300 nM, 1 μM, 3 μM, and 10 μM gemcitabine-HCL for PANC-1 cells and 30 nM, 300 nM, and 3 μM gemcitabine-HCl for MIA PaCa-2 cells. Total RNA was extracted using the Qiagen RNeasy Plus Mini Kit (ThermoFisher, catalogue no. 74134) as per the manufacturer’s instructions. RNA quality (RIN > 9.0) was checked with an Aligent 2100 bioanalyzer RNA 6000 Nano Chip, and RNA concentration was quantified using a Qubit fluorometer (ThermoFisher) and Qubit RNA HS Assay Kit (Qiagen, catalogue no. Q32852). RNA-seq libraries were then generated using the Illumina Truseq RNA HT (stranded mRNA) kit (Illumina, catalogue no. RS-122–2103) as per the manufacturer’s instructions and sequenced using an Illumina HiSeq4000.
Fastq raw sequencing files were preprocessed using cutadapt[81] to remove sequencing adapters and low quality sequencing tails (options −q 10) and then aligned to the human genome (GRCh37/hg19) using tophat2[82] and using the UCSC gtf file provided by Illumina iGenomes as an annotation file (http://support.illumina.com/sequencing/sequencing_software/igenome.html). Gene counts were calculated using htseq-count[83] and the same gtf file. Differential expression analysis was done using the R package edgeR.[84] Differentially expressed genes were estimated independently for both cell lines (MIA PaCa-2 and PANC-1) and for the different time points (6 and 24 h) and were then intersected to inspect the common genes. The sequencing data is available at the GEO public functional genomics data repository (https://www.ncbi.nlm.nih.gov/geo/) as GSE105083. Details of the putative G4 sequence (PQs) analysis are given in the Supporting Information.

hERG = hERG (Homo sapiens, UniProt Q12809); assay: hERG liability (unpublished data)
hERG, sequence (Q12809 whole entry): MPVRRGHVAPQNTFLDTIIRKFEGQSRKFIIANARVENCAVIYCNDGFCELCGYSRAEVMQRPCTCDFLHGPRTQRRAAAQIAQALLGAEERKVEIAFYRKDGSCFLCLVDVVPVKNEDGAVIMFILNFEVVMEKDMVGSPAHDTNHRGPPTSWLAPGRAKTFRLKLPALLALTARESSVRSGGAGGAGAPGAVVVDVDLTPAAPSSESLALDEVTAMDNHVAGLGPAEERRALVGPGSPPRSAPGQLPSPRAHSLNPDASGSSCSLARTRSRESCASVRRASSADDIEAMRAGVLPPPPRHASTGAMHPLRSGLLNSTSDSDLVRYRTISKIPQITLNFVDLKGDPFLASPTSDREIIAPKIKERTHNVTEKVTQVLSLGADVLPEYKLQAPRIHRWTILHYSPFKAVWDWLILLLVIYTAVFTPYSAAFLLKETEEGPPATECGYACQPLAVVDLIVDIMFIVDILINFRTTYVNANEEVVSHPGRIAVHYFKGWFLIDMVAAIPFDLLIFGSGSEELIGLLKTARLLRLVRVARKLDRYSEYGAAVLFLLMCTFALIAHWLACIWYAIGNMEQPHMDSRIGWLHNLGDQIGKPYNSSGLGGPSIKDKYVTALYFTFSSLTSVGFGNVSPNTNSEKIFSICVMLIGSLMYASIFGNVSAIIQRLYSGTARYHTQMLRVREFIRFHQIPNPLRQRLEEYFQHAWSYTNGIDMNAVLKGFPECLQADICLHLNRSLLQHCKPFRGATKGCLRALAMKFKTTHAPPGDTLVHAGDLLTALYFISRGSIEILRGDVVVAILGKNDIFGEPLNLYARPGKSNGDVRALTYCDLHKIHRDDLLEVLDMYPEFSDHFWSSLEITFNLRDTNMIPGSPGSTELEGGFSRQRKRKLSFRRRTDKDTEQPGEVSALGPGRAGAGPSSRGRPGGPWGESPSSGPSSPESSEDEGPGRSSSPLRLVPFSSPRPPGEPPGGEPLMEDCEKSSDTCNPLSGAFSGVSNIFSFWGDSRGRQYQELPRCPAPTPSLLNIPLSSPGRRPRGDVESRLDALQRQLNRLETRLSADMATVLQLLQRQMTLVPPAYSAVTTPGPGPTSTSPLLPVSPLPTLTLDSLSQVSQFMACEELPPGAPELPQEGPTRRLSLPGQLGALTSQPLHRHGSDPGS

[3] = RNA-seq, 400 nM CM03, 6 h, both cell lines combined
[4] = RNA-seq, 400 nM CM03, 24 h, both cell lines combined

O=C1c2ccc3c4c(c(NCCN5CCCC5)cc(c24)C(=O)N1CCCN1CCOCC1)C(=O)N(CCCN1CCOCC1)C3=O [CM03, 2,7-bis(3-morpholinopropyl)-4-((2-(pyrrolidin-1-yl)ethyl)amino)benzo[lmn][3,8]phenanthroline-1,3,6,8(2H,7H)-tetraone]
well tolerated, up to a dosage of [1]: 45 to 50 mg/kg | genes changed in both cell lines ([2]; 400 nM CM03, 6 h): 1185 | genes changed in both cell lines ([2]; 400 nM CM03, 24 h): 1917 | KRAS mRNA expression ([2]; RNA-seq, 400 nM CM03, 6 and 24 h, either pancreatic cell line): unaffected | A1BG combined_logFC.6h.both [2, 3]: 0.1086 | A2LD1 combined_logFC.6h.both [2, 3]: -0.2585 | AAAS combined_logFC.6h.both [2, 3]: -0.007867 | AACS combined_logFC.6h.both [2, 3]: 0.04302 | A1BG combined_logFC.24h.both [2, 4]: -0.3316 | A2LD1 combined_logFC.24h.both [2, 4]: -0.03116 | A4GALT combined_logFC.24h.both [2, 4]: 0.4104 | AACS combined_logFC.24h.both [2, 4]: -0.1174 | hERG liabilities (hERG): neither MM41 nor CM03 show significant hERG liabilities
